Experimental data published in ChEMBL document CHEMBL1130788, “Synthesis and antitumor activity of leinamycin derivatives: modifications of C-8 hydroxy and C-9 keto groups” (Bioorg Med Chem Lett, 1998).

Columns and labels:
P388 [1] = assay: Compound was tested in vivo for antitumor activity against lymphocytic leukemia P388 in mice; type: functional, Mus musculus
P388 [2] = assay: In vivo antitumor activity of compound was tested as maximal increase in life span (ILSmax) against lymphocytic leukemia P388 in mice; type: functional, Mus musculus
HeLa = assay: In vitro antiproliferative activity against human uterine carcinoma HeLa S3 cells.; type: functional, cell-based

SMILES: C/C1=C\[C@@H](OC(=O)c2ccccc2)C(=O)/C=C/C=C\c2csc(n2)[C@@H](C)NC(=O)C[C@@]2(CC1)[S+]([O-])SC(=O)[C@]2(C)O (stereo partly drawn)
- Optimal dose (P388 [1]): 2 mg/kg
- ILSmax (P388 [2]): 36%
- IC50 (HeLa; Homo sapiens, HeLa): 130 nM

SMILES: C/C1=C\[C@@H](OC2CCCCO2)C(=O)/C=C/C=C\c2csc(n2)[C@@H](C)NC(=O)C[C@@]2(CC1)[S+]([O-])SC(=O)[C@]2(C)O (stereo partly drawn)
- Optimal dose (P388 [1]): 0.13 mg/kg
- ILSmax (P388 [2]): 28%
- IC50 (HeLa; Homo sapiens, HeLa): 1.3 nM

SMILES: C/C1=C\[C@@H](OC(=O)C2CCCCC2)C(=O)/C=C/C=C\c2csc(n2)[C@@H](C)NC(=O)C[C@@]2(CC1)[S+]([O-])SC(=O)[C@]2(C)O (stereo partly drawn)
- Optimal dose (P388 [1]): 4 mg/kg
- ILSmax (P388 [2]): 49%
- IC50 (HeLa; Homo sapiens, HeLa): 58 nM

SMILES: C/C1=C\[C@@H](OC(=O)c2cnc3ccccc3n2)C(=O)/C=C/C=C\c2csc(n2)[C@@H](C)NC(=O)C[C@@]2(CC1)[S+]([O-])SC(=O)[C@]2(C)O (stereo partly drawn)
- Optimal dose (P388 [1]): 2 mg/kg
- ILSmax (P388 [2]): 44%
- IC50 (HeLa; Homo sapiens, HeLa): 6.8 nM

SMILES: CC(=O)O[C@@H]1/C=C(\C)CC[C@]2(CC(=O)N[C@H](C)c3nc(cs3)/C=C\C=C\C1=O)[S+]([O-])SC(=O)[C@]2(C)O (stereo partly drawn)
- Optimal dose (P388 [1]): 1 mg/kg
- ILSmax (P388 [2]): 34%
- IC50 (HeLa; Homo sapiens, HeLa): 10 nM

SMILES: C/C1=C\[C@@H](O)C(O)/C=C/C=C\c2csc(n2)[C@@H](C)NC(=O)C[C@@]2(CC1)[S+]([O-])SC(=O)[C@]2(C)O (stereo in doubt; 7-2)
- IC50 (HeLa; Homo sapiens, HeLa): 4900 nM

SMILES: CO\N=C1/C=C/C=C\c2csc(n2)[C@@H](C)NC(=O)C[C@@]2(CC/C(C)=C/[C@H]1O)[S+]([O-])SC(=O)[C@]2(C)O (stereo in doubt; 9b-1)
- IC50 (HeLa; hela): 67 nM

SMILES: CCCCCCCCCCCCCCCC(=O)O[C@@H]1/C=C(\C)CC[C@]2(CC(=O)N[C@H](C)c3nc(cs3)/C=C\C=C\C1=O)[S+]([O-])SC(=O)[C@]2(C)O (stereo partly drawn)
- Optimal dose (P388 [1]): 16 mg/kg
- ILSmax (P388 [2]): 37%
- IC50 (HeLa; Homo sapiens, HeLa): 7700 nM

SMILES: CCOC(=O)O[C@@H]1/C=C(\C)CC[C@]2(CC(=O)N[C@H](C)c3nc(cs3)/C=C\C=C\C1=O)[S+]([O-])SC(=O)[C@]2(C)O (stereo partly drawn)
- Optimal dose (P388 [1]): 2 mg/kg
- ILSmax (P388 [2]): 31%
- IC50 (HeLa; Homo sapiens, HeLa): 1.4 nM

SMILES: CC(=O)O[C@@H]1/C=C(\C)CC[C@]2(CC(=O)N[C@H](C)c3nc(cs3)/C=C\C=C\C1=O)[S+]([O-])SC(=O)[C@]2(C)OC(C)=O (stereo partly drawn)
- Optimal dose (P388 [1]): 2 mg/kg
- ILSmax (P388 [2]): 15%
- IC50 (HeLa; Homo sapiens, HeLa): 780 nM

SMILES: COC1(O[C@@H]2/C=C(\C)CC[C@]3(CC(=O)N[C@H](C)c4nc(cs4)/C=C\C=C\C2=O)[S+]([O-])SC(=O)[C@]3(C)O)CCOCC1 (stereo partly drawn)
- Optimal dose (P388 [1]): 2 mg/kg
- ILSmax (P388 [2]): 35%
- IC50 (HeLa; Homo sapiens, HeLa): 18 nM

SMILES: C/C1=C\[C@@H](O)C(=O)/C=C/C=C\c2csc(n2)[C@@H](C)NC(=O)C[C@@]2(CC1)[S+]([O-])SC(=O)[C@]2(C)O (stereo partly drawn) [LEINAMYCIN]
- Optimal dose (P388 [1]): 0.38 mg/kg
- ILSmax (P388 [2]): 57%
- IC50 (HeLa; Homo sapiens, HeLa): 11 nM

SMILES: C/C1=C\[C@@H](O)C(=N/OCc2ccccc2)/C=C/C=C\c2csc(n2)[C@@H](C)NC(=O)C[C@@]2(CC1)[S+]([O-])SC(=O)[C@]2(C)O (stereo in doubt; 9c-1)
- Optimal dose (P388 [1]): 8 mg/kg
- ILSmax (P388 [2]): 29%
- IC50 (HeLa; hela): 110 nM

SMILES: C/C1=C\[C@@H](O)C(O)/C=C/C=C\c2csc(n2)[C@@H](C)NC(=O)C[C@@]2(CC1)[S+]([O-])SC(=O)[C@]2(C)O (stereo in doubt; 7-1)
- IC50 (HeLa; hela): 6200 nM

SMILES: C/C1=C\[C@@H](OC(=O)N2CCCCC2)C(=O)/C=C/C=C\c2csc(n2)[C@@H](C)NC(=O)C[C@@]2(CC1)[S+]([O-])SC(=O)[C@]2(C)O (stereo partly drawn)
- IC50 (HeLa; Homo sapiens, HeLa): 180 nM

SMILES: C/C1=C\[C@@H](OC(=O)Oc2ccc([N+](=O)[O-])cc2)C(=O)/C=C/C=C\c2csc(n2)[C@@H](C)NC(=O)C[C@@]2(CC1)[S+]([O-])SC(=O)[C@]2(C)O (stereo partly drawn)
- Optimal dose (P388 [1]): 2 mg/kg
- ILSmax (P388 [2]): 57%
- IC50 (HeLa; Homo sapiens, HeLa): 22 nM

SMILES: COC1(OC)/C=C/C=C\c2csc(n2)[C@@H](C)NC(=O)C[C@@]2(CC/C(C)=C/[C@H]1O)[S+]([O-])SC(=O)[C@]2(C)O (stereo partly drawn)
- IC50 (HeLa; Homo sapiens, HeLa): > 10000 nM

SMILES: CO\N=C1/C=C/C=C\c2csc(n2)[C@@H](C)NC(=O)C[C@@]2(CC/C(C)=C/[C@H]1O)[S+]([O-])SC(=O)[C@]2(C)O (stereo in doubt; 9b-2)
- Optimal dose (P388 [1]): 2 mg/kg
- ILSmax (P388 [2]): 21%
- IC50 (HeLa; Homo sapiens, HeLa): 110 nM

SMILES: C/C1=C\[C@@H](O)C(=N/O)/C=C/C=C\c2csc(n2)[C@@H](C)NC(=O)C[C@@]2(CC1)[S+]([O-])SC(=O)[C@]2(C)O (stereo partly drawn)
- IC50 (HeLa; Homo sapiens, HeLa): 910 nM

SMILES: C/C1=C\[C@@H](O)C(=N/OCc2ccccc2)/C=C/C=C\c2csc(n2)[C@@H](C)NC(=O)C[C@@]2(CC1)[S+]([O-])SC(=O)[C@]2(C)O (stereo in doubt; 9c-2)
- Optimal dose (P388 [1]): 2 mg/kg
- ILSmax (P388 [2]): 31%
- IC50 (HeLa; hela): 9.5 nM
